# Experimental data published in patent US6630471B1, “Substituted triazolo-pyridazine derivative, pharmaceutical compositions made therefrom” (Merck Sharp & Dohme Ltd., priority 1998, dated 2003).
# Tests used:
# [1] = moisture vapour sorption (adsorption/desorption isotherm); type: physicochemical
# Protocol: These moisture vapour sorption studies show formation of a dihydrate above 80% relative humidity (RH) at 25° C. Hysteresis indicative of hydrate formation is seen to occur, with desorption occurring below ca. 60% RH.
# aqueous solubility = type: physicochemical
# From the text: This conversion is slow due to the low aqueous solubility of Compound I in relation to the large excess of solid compound slurried.
smiles,measurement,setting,value
"CCn1ncnc1COc1nn2c(-c3ccccc3F)nnc2cc1C(C)(C)C [Compound I polymorph A, 7-(1,1-Dimethylethyl)-6-(2-ethyl-2H-1,2,4-triazol-3-ylmethoxy)-3-(2-fluorophenyl)-1,2,4-triazolo[4,3-b]pyridazine]",relative humidity of dihydrate formation,"[1]; 25° C., adsorption",above 80 % relative humidity (RH)
same,relative humidity of desorption (hysteresis),"[1]; 25° C., desorption",< 60 % RH
"CCn1ncnc1COc1nn2c(-c3ccccc3F)nnc2cc1C(C)(C)C [Compound I, 7-(1,1-Dimethylethyl)-6-(2-ethyl-2H-1,2,4-triazol-3-ylmethoxy)-3-(2-fluorophenyl)-1,2,4-triazolo[4,3-b]pyridazine]",aqueous solubility,aqueous solubility,low
"CCn1ncnc1COc1nn2c(-c3ccccc3F)nnc2cc1C(C)(C)C [dihydrate of polymorph A, 7-(1,1-Dimethylethyl)-6-(2-ethyl-2H-1,2,4-triazol-3-ylmethoxy)-3-(2-fluorophenyl)-1,2,4-triazolo[4,3-b]pyridazine]",stability of the dihydrate,[1]; humidity,"stable, but only at elevated humidities"
